Measured values reported in US20180194762A1 (Pharmacyclics LLC, priority 2017, published 2018).
pIC50: −log10 of the molar value.

How the values were obtained:
Type in all cases: biochemical
[1] = biological target: T1, panel of kinases (Homo sapiens, UniProt P51813); assay: Inhibition of a panel of kinases (in vitro HotSpot kinase assay, 33P-ATP, 1 μM ATP), other kinases; conditions: BMX wild-type, read-out: BMX-WT IC50
T1 sequence (P51813 1-675): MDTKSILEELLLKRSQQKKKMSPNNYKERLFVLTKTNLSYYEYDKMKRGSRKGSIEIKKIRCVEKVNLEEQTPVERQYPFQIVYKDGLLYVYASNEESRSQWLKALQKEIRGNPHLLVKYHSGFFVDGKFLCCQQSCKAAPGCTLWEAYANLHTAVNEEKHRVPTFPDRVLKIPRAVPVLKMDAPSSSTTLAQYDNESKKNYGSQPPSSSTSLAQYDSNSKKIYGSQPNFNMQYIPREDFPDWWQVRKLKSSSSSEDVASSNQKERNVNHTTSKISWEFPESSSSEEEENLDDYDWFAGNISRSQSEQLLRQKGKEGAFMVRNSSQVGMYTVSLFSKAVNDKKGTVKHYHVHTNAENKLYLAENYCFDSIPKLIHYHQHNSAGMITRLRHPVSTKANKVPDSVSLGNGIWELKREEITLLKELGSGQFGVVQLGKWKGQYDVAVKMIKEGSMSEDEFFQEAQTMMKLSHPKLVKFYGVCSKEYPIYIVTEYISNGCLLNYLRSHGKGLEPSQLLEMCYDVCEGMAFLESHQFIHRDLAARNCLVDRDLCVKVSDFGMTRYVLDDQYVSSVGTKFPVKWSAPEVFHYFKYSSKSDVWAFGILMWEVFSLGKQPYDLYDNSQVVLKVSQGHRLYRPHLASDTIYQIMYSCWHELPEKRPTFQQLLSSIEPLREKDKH
Method: Example 63: Inhibition of a Panel of Kinases The degree of inhibition of a panel of kinases is determined using the in vitro HotSpot kinase assay (purified enzymes, ^33P-ATP, an appropriate substrate and 1 μM ATP).

[2] = biological target: T2, TEC (Homo sapiens, UniProt P42680); assay: Inhibition of a panel of kinases (in vitro HotSpot kinase assay, 33P-ATP, 1 μM ATP); conditions: for pIC50: HotSpot kinase assay, 1 μM ATP
T2 sequence (P42680 1-631): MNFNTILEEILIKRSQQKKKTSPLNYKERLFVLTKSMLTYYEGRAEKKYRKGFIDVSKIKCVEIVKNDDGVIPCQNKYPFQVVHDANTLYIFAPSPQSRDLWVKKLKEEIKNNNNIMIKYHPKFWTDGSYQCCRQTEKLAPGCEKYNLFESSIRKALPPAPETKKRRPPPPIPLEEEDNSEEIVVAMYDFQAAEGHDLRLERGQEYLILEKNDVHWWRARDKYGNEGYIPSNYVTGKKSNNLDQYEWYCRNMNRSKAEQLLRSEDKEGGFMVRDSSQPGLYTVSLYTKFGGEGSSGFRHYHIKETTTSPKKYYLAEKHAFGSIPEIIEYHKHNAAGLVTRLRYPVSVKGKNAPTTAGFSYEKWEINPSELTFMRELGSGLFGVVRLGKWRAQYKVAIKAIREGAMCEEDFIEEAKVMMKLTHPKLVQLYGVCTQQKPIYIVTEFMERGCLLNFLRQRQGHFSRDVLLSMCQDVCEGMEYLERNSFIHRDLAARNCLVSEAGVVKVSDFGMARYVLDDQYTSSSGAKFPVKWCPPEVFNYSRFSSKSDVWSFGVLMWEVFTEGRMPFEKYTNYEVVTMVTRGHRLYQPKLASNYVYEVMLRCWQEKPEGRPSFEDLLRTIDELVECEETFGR
How it was run: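 Radiometric read-out: 33P transfer to a suitable substrate by each purified enzyme, ATP at 1 μM. Values are degree of inhibition.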

[3] = biological target: T3, Btk (Homo sapiens, UniProt Q06187); assay: Btk in vitro inhibitory activity (one of Method A TR-FRET, Method B electrophoretic mobility shift, Method C radiometric filter binding); conditions: wild-type Btk; read-out: Btk-WT IC50
T3 construct: purified from insect cells as a full-length construct containing a N-terminal 6X-His tag; His6 (N); made in house; host or cells: insect cells (Method C)
T3 sequence (Q06187 whole entry): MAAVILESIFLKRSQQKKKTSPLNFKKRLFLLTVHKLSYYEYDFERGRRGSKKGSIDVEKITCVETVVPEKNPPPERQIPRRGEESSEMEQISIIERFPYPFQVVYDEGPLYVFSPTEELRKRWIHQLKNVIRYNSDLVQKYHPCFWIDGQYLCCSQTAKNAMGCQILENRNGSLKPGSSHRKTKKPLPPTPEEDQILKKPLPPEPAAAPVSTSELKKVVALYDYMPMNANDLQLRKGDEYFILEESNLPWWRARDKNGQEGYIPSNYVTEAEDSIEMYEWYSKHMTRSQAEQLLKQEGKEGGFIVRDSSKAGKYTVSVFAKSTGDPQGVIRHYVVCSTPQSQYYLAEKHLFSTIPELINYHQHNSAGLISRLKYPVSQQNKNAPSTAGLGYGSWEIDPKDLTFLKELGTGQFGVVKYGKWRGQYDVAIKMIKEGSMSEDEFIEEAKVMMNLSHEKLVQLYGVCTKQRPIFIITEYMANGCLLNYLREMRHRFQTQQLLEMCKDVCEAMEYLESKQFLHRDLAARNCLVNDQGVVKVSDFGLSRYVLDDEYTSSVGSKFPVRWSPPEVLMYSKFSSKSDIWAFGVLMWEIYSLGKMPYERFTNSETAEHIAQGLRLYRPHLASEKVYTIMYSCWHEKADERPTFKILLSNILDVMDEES
How it was run: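 Three alternative formats were used. A radiometric filter-binding read used 8 nM full-length His-BTK with 0.2 mg/mL poly(Glu-Tyr) 4:1 (C); microfluidic separation of 1 μM FAM-peptide by 1 nM BTK gave IC50 from 12-point curves (B); TR-FRET at Km ATP, 0.5 nM Btk, gave Ki(app)-derived IC50 (A).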

Row | SMILES | pIC50 [1] | TEC/Btk ([2]; ratio of TEC IC50 to Btk IC50 (selectivity)) | pIC50 [3] | pIC50 [2]
1 | OCc1ccc(-c2ccnc3[nH]nc(N[C@H]4CC[C@H](O)CC4)c23)cc1F [Compound 11] | 5.59 | 10 |  | 
2 | CC(=O)N[C@@H]1CCN(c2n[nH]c3nccc(-c4ccc(CNC(=O)c5nc6c(o5)CCCC6)c(F)c4)c23)C1 [Example 198, N-[(4-{3-[(3R)-3-acetamidopyrrolidin-1-yl]-1H-pyrazolo[3,4-b]pyridin-4-yl}-2-fluorophenyl)methyl]-4,5,6,7-tetrahydro-1,3-benzoxazole-2-carboxamide] | 5.50 |  | 6.86 | 
3 | C[C@@H](NC(=O)c1nc(C(C)(C)C)no1)c1ccc(-c2ccnc3[nH]nc(NC4CCOC4)c23)cc1 (stereo partly drawn) [Example 217, 3-tert-butyl-N-[(1R)-1-(4-{3-[(oxolan-3-yl)amino]-1H-pyrazolo[3,4-b]pyridin-4-yl}phenyl)ethyl]-1,2,4-oxadiazole-5-carboxamide] | 5.17 |  | 8.19 | 
4 | C[C@@H](NC(=O)c1nc(C(C)(C)C)no1)c1ccc(-c2ccnc3[nH]nc(NC4CCOCC4)c23)cc1 [Example 218, 3-tert-butyl-N-[(1R)-1-(4-{3-[(oxan-4-yl)amino]-1H-pyrazolo[3,4-b]pyridin-4-yl}phenyl)ethyl]-1,2,4-oxadiazole-5-carboxamide] | 5.18 |  | 7.72 | 
5 | C[C@@H](NC(=O)c1noc(C(C)(C)C)n1)c1ccc(-c2ccnc3[nH]nc(C4=CCCN(C(=O)N(C)C)C4)c23)cc1 [Example 254, 5-[4-(4-{(1R)-1-[(5-tert-butyl-1,2,4-oxadiazole-3-carbonyl)amino]ethyl}phenyl)-1H-pyrazolo[3,4-b]pyridin-3-yl]-N,N-dimethyl-3,6-dihydropyridine-1(2H)-carboxamide] | 5.04 |  | 7.39 | 
6 | Cc1c(NC(=O)c2noc(C(C)(C)C)n2)cccc1-c1ccnc2[nH]nc(N[C@@H]3CCNC3)c12 [Example 266, 5-tert-butyl-N-[2-methyl-3-(3-{[(3R)-pyrrolidin-3-yl]amino}-1H-pyrazolo[3,4-b]pyridin-4-yl)phenyl]-1,2,4-oxadiazole-3-carboxamide] | 5.30 |  |  | 
7 | CC(C)(C)c1ccc(C(=O)NCc2ccc(-c3ccnc4[nH]nc(NC5CCNC5)c34)cn2)cc1 (stereo not shown) [Example 268, 4-tert-butyl-N-[(5-{3-[(pyrrolidin-3-yl)amino]-1H-pyrazolo[3,4-b]pyridin-4-yl}pyridin-2-yl)methyl]benzamide] | 5.52 |  |  | 5.35
8 | CC(C)(C)c1nc(C(=O)NCc2ccc(-c3ccnc4[nH]nc(C[C@H]5CCNC5)c34)cc2F)no1 [Example 274, (R)-5-tert-butyl-N-[(2-fluoro-4-{3-[(pyrrolidin-3-yl)methyl]-1H-pyrazolo[3,4-b]pyridin-4-yl}phenyl)methyl]-1,2,4-oxadiazole-3-carboxamide] | 5.07 |  | 6.83 | 
9 | CC(C)(C)c1nc(C(=O)NCc2ccc(-c3ccnc4[nH]nc(C5CCNC5)c34)cc2F)no1 (stereo not shown) [Example 278, 5-tert-butyl-N-({2-fluoro-4-[3-(pyrrolidin-3-yl)-1H-pyrazolo[3,4-b]pyridin-4-yl]phenyl}methyl)-1,2,4-oxadiazole-3-carboxamide] | 5.10 |  | 7.03 | 
10 | CC(C)c1cc(C(=O)NCc2ccc(-c3ccnc4[nH]nc(N[C@@H]5CCCN(C(=O)N(C)C)[C@@H]5C)c34)cc2F)no1 [Example 305, (2R,3R)-3-({4-[3-fluoro-4-({[5-(propan-2-yl)-1,2-oxazole-3-carbonyl]amino}methyl)phenyl]-1H-pyrazolo[3,4-b]pyridin-3-yl}amino)-N,N,2-trimethylpiperidine-1-carboxamide] | 5.02 |  | 6.17 | 
11 | C=CC(=O)N[C@@H]1CCCC[C@H]1Nc1n[nH]c2nccc(-c3ccc(CNC(=O)c4cc(C(C)(C)C)on4)c(F)c3)c12 [Example 313, 5-tert-butyl-N-({2-fluoro-4-[3-({(1R,2R)-2-[(prop-2-enoyl)amino]cyclohexyl}amino)-1H-pyrazolo[3,4-b]pyridin-4-yl]phenyl}methyl)-1,2-oxazole-3-carboxamide] | 5.28 |  | 8.06 | 
12 | C[C@@H]1[C@H](Nc2n[nH]c3nccc(-c4ccc(CNC(=O)c5cc(C(C)(C)O)on5)c(F)c4)c23)CCCN1C(=O)N(C)C [Example 316, (2R,3R)-3-({4-[3-fluoro-4-({[5-(2-hydroxypropan-2-yl)-1,2-oxazole-3-carbonyl]amino}methyl)phenyl]-1H-pyrazolo[3,4-b]pyridin-3-yl}amino)-N,N,2-trimethylpiperidine-1-carboxamide] | 5.06 |  |  | 
13 | C[C@@H]1[C@H](Nc2n[nH]c3nccc(-c4ccc(CNC(=O)c5cc(C(C)(C)N)on5)c(F)c4)c23)CCCN1C(=O)N(C)C [Example 317, (2R,3R)-3-({4-[4-({[5-(2-aminopropan-2-yl)-1,2-oxazole-3-carbonyl]amino}methyl)-3-fluorophenyl]-1H-pyrazolo[3,4-b]pyridin-3-yl}amino)-N,N,2-trimethylpiperidine-1-carboxamide] | 5.18 |  |  | 
14 | O=C(NCc1ccc(-c2ccnc3[nH]nc(NC4CCNC4)c23)cc1F)c1cc(Cl)on1 (stereo not shown) [Example 341, 5-chloro-N-[(2-fluoro-4-{3-[(pyrrolidin-3-yl)amino]-1H-pyrazolo[3,4-b]pyridin-4-yl}phenyl)methyl]-1,2-oxazole-3-carboxamide] | 5.69 |  | 6.05 | 
15 | CN(C)C(=O)N1CC[C@@H](Nc2n[nH]c3nccc(-c4ccc(CNC(=O)c5cc(Cl)on5)c(F)c4)c23)C1 [Example 343, 5-chloro-N-{[4-(3-{[(3R)-1-(dimethylcarbamoyl)pyrroli-din-3-yl]amino}-1H-pyrazolo[3,4-b]pyridin-4-yl)-2-fluorophenyl]methyl}-1,2-oxazole-3-carboxamide] | 5.76 |  |  | 
16 | O=C(NCc1ccc(-c2ccnc3[nH]nc(N[C@@H]4CCNC4)c23)cc1F)c1cc(-c2ccccc2)on1 [Example 344, (R)-N-[(2-fluoro-4-{3-[(pyrrolidin-3-yl)amino]-1H-pyrazolo[3,4-b]pyridin-4-yl}phenyl)methyl]-5-phenyl-1,2-oxazole-3-carboxamide] | 5.25 |  |  | 
17 | C[C@@H](NC(=O)c1cc(C(C)(C)O)on1)c1ccc(-c2ccnc3[nH]nc(NC4CCS(=O)(=O)CC4)c23)cc1 [Example 385, N-[(1R)-1-(4-{3-[(1,1-dioxo-1λ^6-thian-4-yl)amino]-1H-pyrazolo[3,4-b]pyridin-4-yl}phenyl)ethyl]-5-(2-hydroxypropan-2-yl)-1,2-oxazole-3-carboxamide] | 5.01 |  |  | 
18 | C[C@@H](NC(=O)c1cc(C(C)(C)O)on1)c1ccc(-c2ccnc3[nH]nc(NC4CCCCC4)c23)cc1 [Example 399, N-[(1R)-1-{4-[3-(cyclohexylamino)-1H-pyrazolo[3,4-b]pyridin-4-yl]phenyl}ethyl]-5-(2-hydroxypropan-2-yl)-1,2-oxazole-3-carboxamide] | 5.36 |  |  | 5.03
19 | C[C@@H](NC(=O)c1cc(C(C)(C)O)on1)c1ccc(-c2ccnc3[nH]nc(NC4CCOCC4)c23)cc1 [Example 400, 5-(2-hydroxypropan-2-yl)-N-[(1R)-1-(4-{3-[(oxan-4-yl)amino]-1H-pyrazolo[3,4-b]pyridin-4-yl}phenyl)ethyl]-1,2-oxazole-3-carboxamide] | 5.28 |  |  | 
